Results from PMC5218480 (PLoS ONE, 2017).

Test system: MV-4-11 cells
Experiment: Gene expression microarray analysis (Affymetrix PrimeView) and GSEA
Type: cell-based, human
Set-up: RFU PODN (11730768_x_at) / Fold change /veh PODN (11730768_x_at) / RFU LINC00158 (11744669_a_at) / Fold change /veh LINC00158 (11744669_a_at) / RFU DUSP10 (11751237_a_at) / Fold change /veh DUSP10 (11751237_a_at) / RFU ID3 (11757404_x_at) / Fold change /veh ID3 (11757404_x_at) / RFU PLEKHG5 (11737974_s_at) / Fold change /veh PLEKHG5 (11737974_s_at) / RFU LRRC4B (11730491_at) / Fold change /veh LRRC4B (11730491_at) / RFU GIMAP4 (11747438_a_at) / Fold change /veh GIMAP4 (11747438_a_at) / RFU KRT8 (11758183_x_at) / Fold change /veh KRT8 (11758183_x_at) / RFU CNN1 (11734310_a_at) / Fold change /veh CNN1 (11734310_a_at) / RFU VPS37D (11726825_at) / Fold change /veh VPS37D (11726825_at) / RFU C10orf10 (11716522_x_at) / Fold change /veh C10orf10 (11716522_x_at) / RFU KIR2DL2 /// KIR2DL4 /// KIR2DL5A /// KIR2DL5B /// KIR2DS1 /// KIR2DS2 /// KIR2DS3 /// KIR2DS4 /// KIR3DL3 /// KIR3DL3 /// KIR3DS1 (11738374_at) / Fold change /veh KIR2DL2 /// KIR2DL4 /// KIR2DL5A /// KIR2DL5B /// KIR2DS1 /// KIR2DS2 /// KIR2DS3 /// KIR2DS4 /// KIR3DL3 /// KIR3DL3 /// KIR3DS1 (11738374_at) / RFU C1QL1 (11718748_at) / Fold change /veh C1QL1 (11718748_at) / RFU TMPRSS4 (11747572_a_at) / Fold change /veh TMPRSS4 (11747572_a_at) / RFU HAMP (11756126_x_at) / Fold change /veh HAMP (11756126_x_at) / RFU RNFT2 (11725882_a_at) / Fold change /veh RNFT2 (11725882_a_at) / RFU NR4A2 (11747474_a_at) / Fold change /veh NR4A2 (11747474_a_at) / RFU ABCC12 (11746883_a_at) / Fold change /veh ABCC12 (11746883_a_at) / RFU TMEM136 (11760407_x_at) / Fold change /veh TMEM136 (11760407_x_at) / RFU CLDN22 /// WWC2 (11732394_at) / Fold change /veh CLDN22 /// WWC2 (11732394_at) / RFU HLA-DPB1 (11760878_x_at) / Fold change /veh HLA-DPB1 (11760878_x_at) / RFU SPINT1 (11716480_a_at) / Fold change /veh SPINT1 (11716480_a_at) / RFU GAP43 (11754022_s_at) / Fold change /veh GAP43 (11754022_s_at) / RFU A4GNT (11735810_at) / Fold change /veh A4GNT (11735810_at) / RFU PRB3 (11715151_x_at) / Fold change /veh PRB3 (11715151_x_at) / RFU TUBB4B (11761932_at) / Fold change /veh TUBB4B (11761932_at) / RFU CAPN14 (11732068_a_at) / Fold change /veh CAPN14 (11732068_a_at) / RFU TMCC2 (11721928_a_at) / Fold change /veh TMCC2 (11721928_a_at) / RFU IRGQ (11745062_a_at) / Fold change /veh IRGQ (11745062_a_at) / RFU FAM174B (11720279_a_at) / Fold change /veh FAM174B (11720279_a_at) / RFU TMPRSS4 (11748680_a_at) / Fold change /veh TMPRSS4 (11748680_a_at) / RFU FAM212B (11763350_a_at) / Fold change /veh FAM212B (11763350_a_at) / RFU PLEKHG5 (11743358_a_at) / Fold change /veh PLEKHG5 (11743358_a_at) / RFU ZSCAN30 (11745921_a_at) / Fold change /veh ZSCAN30 (11745921_a_at) / RFU CMKLR1 (11741424_a_at) / Fold change /veh CMKLR1 (11741424_a_at) / RFU LOC101060620 /// MAPK8IP1 (11723275_at) / Fold change /veh LOC101060620 /// MAPK8IP1 (11723275_at) / RFU SPTSSB (11747773_x_at) / Fold change /veh SPTSSB (11747773_x_at) / RFU PRSS12 (11739890_at) / Fold change /veh PRSS12 (11739890_at) / RFU BIN1 (11741810_x_at) / Fold change /veh BIN1 (11741810_x_at) / RFU WNT11 (11732464_a_at) / Fold change /veh WNT11 (11732464_a_at) / RFU C10orf10 (11716521_a_at) / Fold change /veh C10orf10 (11716521_a_at) / RFU C5orf56 (11738089_at) / Fold change /veh C5orf56 (11738089_at) / RFU CYB561 (11721691_x_at) / Fold change /veh CYB561 (11721691_x_at) / RFU ANKRD19P (11752326_a_at) / Fold change /veh ANKRD19P (11752326_a_at) / RFU OR2T12 /// OR2T33 /// OR2T8 (11738714_s_at) / Fold change /veh OR2T12 /// OR2T33 /// OR2T8 (11738714_s_at) / RFU VCAN (11748164_a_at) / Fold change /veh VCAN (11748164_a_at) / RFU JSRP1 (11732532_at) / Fold change /veh JSRP1 (11732532_at) / RFU KRTAP10-11 (11738290_x_at) / Fold change /veh KRTAP10-11 (11738290_x_at) / RFU MYO3A (11730013_a_at) / Fold change /veh MYO3A (11730013_a_at) / RFU EBF3 (11725865_a_at) / Fold change /veh EBF3 (11725865_a_at) / RFU CAMK2N1 (11719241_x_at) / Fold change /veh CAMK2N1 (11719241_x_at) / RFU C5orf56 (11738088_a_at) / Fold change /veh C5orf56 (11738088_a_at) / RFU OLFML3 (11715873_a_at) / Fold change /veh OLFML3 (11715873_a_at) / RFU LOC100653217 /// NTM (11731650_a_at) / Fold change /veh LOC100653217 /// NTM (11731650_a_at) / RFU MAPK11 (11762145_a_at) / Fold change /veh MAPK11 (11762145_a_at) / RFU FIZ1 (11724087_x_at) / Fold change /veh FIZ1 (11724087_x_at) / RFU OASL (11726364_x_at) / Fold change /veh OASL (11726364_x_at) / RFU SOX15 (11748057_x_at) / Fold change /veh SOX15 (11748057_x_at) / RFU CD79A (11719716_a_at) / Fold change /veh CD79A (11719716_a_at) / RFU HIST1H1D (11736915_at) / Fold change /veh HIST1H1D (11736915_at) / RFU CASKIN2 (11723855_a_at) / Fold change /veh CASKIN2 (11723855_a_at) / RFU LOC730098 (11760151_x_at) / Fold change /veh LOC730098 (11760151_x_at) / RFU OR4N2 (11742367_at) / Fold change /veh OR4N2 (11742367_at) / RFU PRRT2 (11749266_a_at) / Fold change /veh PRRT2 (11749266_a_at) / RFU SNX32 (11753110_a_at) / Fold change /veh SNX32 (11753110_a_at) / RFU CDHR5 (11726645_a_at) / Fold change /veh CDHR5 (11726645_a_at) / RFU RCAN1 (11760418_a_at) / Fold change /veh RCAN1 (11760418_a_at) / RFU FAM167A (11723789_a_at) / Fold change /veh FAM167A (11723789_a_at) / RFU FAM26E (11764081_at) / Fold change /veh FAM26E (11764081_at) / RFU ISYNA1 (11749810_s_at) / Fold change /veh ISYNA1 (11749810_s_at) / RFU ACY1 (11761880_at) / Fold change /veh ACY1 (11761880_at) / RFU 11764098_at / Fold change /veh 11764098_at / RFU SAMD14 (11745864_x_at) / Fold change /veh SAMD14 (11745864_x_at) / RFU NPB (11741838_a_at) / Fold change /veh NPB (11741838_a_at) / RFU TMPRSS6 (11731388_a_at) / Fold change /veh TMPRSS6 (11731388_a_at) / RFU KRTAP10-2 (11738614_at) / Fold change /veh KRTAP10-2 (11738614_at) / RFU ARHGAP8 /// PRR5-ARHGAP8 (11727945_x_at) / Fold change /veh ARHGAP8 /// PRR5-ARHGAP8 (11727945_x_at) / RFU KRTAP5-7 /// NADSYN1 (11734609_at) / Fold change /veh KRTAP5-7 /// NADSYN1 (11734609_at) / RFU RASL12 (11751679_a_at) / Fold change /veh RASL12 (11751679_a_at) / RFU CDKN2B (11736163_a_at) / Fold change /veh CDKN2B (11736163_a_at) / RFU PRF1 (11729649_at) / Fold change /veh PRF1 (11729649_at) / RFU, ZNF638 /// ZNF638-IT1 / Fold change vs veh, ZNF638 /// ZNF638-IT1 / RFU, PANK3 / Fold change vs veh, PANK3 / RFU, SH3YL1 / Fold change vs veh, SH3YL1 / RFU, ZEB2 / Fold change vs veh, ZEB2 / RFU, NRIP1 / Fold change vs veh, NRIP1 / RFU, PTTG1IP / Fold change vs veh, PTTG1IP / RFU, CAPN2 / Fold change vs veh, CAPN2 / RFU, MED14 / Fold change vs veh, MED14 / RFU, SNORA58 / Fold change vs veh, SNORA58 / RFU, C1orf63 / Fold change vs veh, C1orf63 / RFU, LRRFIP1 / Fold change vs veh, LRRFIP1 / RFU, NDUFAF7 / Fold change vs veh, NDUFAF7 / RFU, SLC12A2 / Fold change vs veh, SLC12A2 / RFU, IBTK / Fold change vs veh, IBTK / RFU, ESF1 / Fold change vs veh, ESF1 / Fold change vs veh, TMEM50B / RFU, TAOK1 / Fold change vs veh, TAOK1 / RFU, ACBD3 / Fold change vs veh, ACBD3 / RFU, TMA16 / Fold change vs veh, TMA16 / RFU, RWDD3 / Fold change vs veh, RWDD3 / RFU, BCAT1 / Fold change vs veh, BCAT1 / RFU, EDEM3 / Fold change vs veh, EDEM3 / RFU, TMEM33 / Fold change vs veh, TMEM33 / RFU, WDR75 / Fold change vs veh, WDR75 / RFU, AHCTF1 / Fold change vs veh, AHCTF1 / RFU, TFRC / Fold change vs veh, TFRC / RFU, ZDHHC17 / Fold change vs veh, ZDHHC17 / RFU, NOM1 / Fold change vs veh, NOM1 / RFU, ARL8B / Fold change vs veh, ARL8B / RFU, ZBTB11 / Fold change vs veh, ZBTB11 / RFU, TAMM41 / Fold change vs veh, TAMM41 / RFU, KIAA1704 /// LOC100996395 / Fold change vs veh, KIAA1704 /// LOC100996395 / RFU, ING1 / Fold change vs veh, ING1 / RFU, TRMT61B / Fold change vs veh, TRMT61B / RFU, FUBP3 / Fold change vs veh, FUBP3 / RFU, TP53 / Fold change vs veh, TP53 / RFU, TNKS2 / Fold change vs veh, TNKS2 / RFU, ZFP14 / Fold change vs veh, ZFP14 / RFU, ACTR2 / Fold change vs veh, ACTR2 / RFU, PPP3R1 / Fold change vs veh, PPP3R1 / RFU, PIK3R1 / Fold change vs veh, PIK3R1 / RFU, HNRNPA1 / Fold change vs veh, HNRNPA1 / RFU, RNF170 / Fold change vs veh, RNF170 / RFU, ZNF28 / Fold change vs veh, ZNF28 / RFU, RNGTT / Fold change vs veh, RNGTT / RFU, OGT / Fold change vs veh, OGT / RFU, BRD1 / Fold change vs veh, BRD1 / RFU, MARS / Fold change vs veh, MARS / RFU, ZNF655 / Fold change vs veh, ZNF655 / RFU, FAHD1 / Fold change vs veh, FAHD1 / RFU, BDP1 / Fold change vs veh, BDP1 / RFU, LRRCC1 / Fold change vs veh, LRRCC1 / RFU, ARID1A / Fold change vs veh, ARID1A / RFU, ZNF146 / Fold change vs veh, ZNF146 / RFU, ZNF330 / Fold change vs veh, ZNF330 / RFU, GPN3 / Fold change vs veh, GPN3 / RFU, C9orf123 / Fold change vs veh, C9orf123 / RFU, N4BP2L2 / Fold change vs veh, N4BP2L2 / RFU, ARFIP1 / Fold change vs veh, ARFIP1 / RFU, FAM179B / Fold change vs veh, FAM179B / RFU, BCL10 / Fold change vs veh, BCL10 / RFU, UHRF1BP1L / Fold change vs veh, UHRF1BP1L / RFU, BET1 / Fold change vs veh, BET1 / RFU, CNOT2 / Fold change vs veh, CNOT2 / RFU, ZNF268 / Fold change vs veh, ZNF268 / Fold change vs veh, ZNF507 / RFU, DGCR2 / Fold change vs veh, DGCR2 / RFU, WDSUB1 / Fold change vs veh, WDSUB1 / Fold change vs veh, HSP90B1 /// MIR3652 / RFU, ADSS / Fold change vs veh, ADSS / RFU, GK / Fold change vs veh, GK / RFU, ZNF148 / Fold change vs veh, ZNF148 / RFU, TAF9 / Fold change vs veh, TAF9 / RFU, SLC1A5 / Fold change vs veh, SLC1A5 / RFU, SLMO2 / Fold change vs veh, SLMO2 / RFU, ABCC4 / Fold change vs veh, ABCC4 / RFU, LOC101060439 /// RAP1B / Fold change vs veh, LOC101060439 /// RAP1B / RFU, RFX7 / Fold change vs veh, RFX7 / RFU, GTPBP10 / Fold change vs veh, GTPBP10 / RFU, CNEP1R1 / Fold change vs veh, CNEP1R1 / RFU, BIVM-ERCC5 /// ERCC5 / Fold change vs veh, BIVM-ERCC5 /// ERCC5 / RFU, ILF3 / Fold change vs veh, ILF3 / RFU 11762660_at / Fold change /veh 11762660_at / RFU VCAN (11757783_s_at) / Fold change /veh VCAN (11757783_s_at) / RFU DDX43 (11728927_at) / Fold change /veh DDX43 (11728927_at) / RFU KRT8 (11758188_x_at) / Fold change /veh KRT8 (11758188_x_at) / RFU NKD1 (11759106_at) / Fold change /veh NKD1 (11759106_at) / RFU SRD5A1 (11742802_a_at) / Fold change /veh SRD5A1 (11742802_a_at) / RFU TPSAB1 /// TPSB2 (11721975_s_at) / Fold change /veh TPSAB1 /// TPSB2 (11721975_s_at) / RFU GSTM3 (11746129_a_at) / Fold change /veh GSTM3 (11746129_a_at) / RFU IL23R (11737362_x_at) / Fold change /veh IL23R (11737362_x_at) / RFU TMEM51 (11727254_a_at) / Fold change /veh TMEM51 (11727254_a_at) / RFU PIWIL2 (11732686_x_at) / Fold change /veh PIWIL2 (11732686_x_at) / RFU ORM1 (11744905_x_at) / Fold change /veh ORM1 (11744905_x_at) / RFU CCDC152 (11743942_at) / Fold change /veh CCDC152 (11743942_at) / RFU ECM1 (11717891_a_at) / Fold change /veh ECM1 (11717891_a_at) / RFU IL23R (11748794_a_at) / Fold change /veh IL23R (11748794_a_at) / RFU TNFAIP8L3 (11732012_x_at) / Fold change /veh TNFAIP8L3 (11732012_x_at) / RFU MBOAT4 (11741988_at) / Fold change /veh MBOAT4 (11741988_at) / RFU 11764193_at / Fold change /veh 11764193_at / RFU TMEM53 (11763286_at) / Fold change /veh TMEM53 (11763286_at) / RFU MAGEB2 (11727129_at) / Fold change /veh MAGEB2 (11727129_at) / RFU TMEM200A (11744735_a_at) / Fold change /veh TMEM200A (11744735_a_at) / RFU CCDC152 (11751479_a_at) / Fold change /veh CCDC152 (11751479_a_at) / RFU FAM211A (11726209_a_at) / Fold change /veh FAM211A (11726209_a_at) / RFU RGS16 (11746705_a_at) / Fold change /veh RGS16 (11746705_a_at) / RFU VCAN (11755009_s_at) / Fold change /veh VCAN (11755009_s_at) / RFU RHOB (11743442_s_at) / Fold change /veh RHOB (11743442_s_at) / RFU RGS16 (11720943_a_at) / Fold change /veh RGS16 (11720943_a_at) / RFU RGS16 (11720944_at) / Fold change /veh RGS16 (11720944_at) / RFU, VPS4B / Fold change vs veh, VPS4B / RFU, CREB1 / Fold change vs veh, CREB1 / RFU, DNAJC13 / Fold change vs veh, DNAJC13 / RFU, GNAQ / Fold change vs veh, GNAQ / RFU, CDK5R1 / Fold change vs veh, CDK5R1 / RFU, ZRANB3 / Fold change vs veh, ZRANB3 / RFU, CUL4A / Fold change vs veh, CUL4A / RFU, CCNY / Fold change vs veh, CCNY / RFU, UFL1 / Fold change vs veh, UFL1 / RFU, COG3 / Fold change vs veh, COG3 / RFU, DIAPH2 / Fold change vs veh, DIAPH2 / RFU, SKA2 / Fold change vs veh, SKA2 / RFU, AFF3 / Fold change vs veh, AFF3 / RFU, LMF1 / Fold change vs veh, LMF1 / RFU, IPO11 / Fold change vs veh, IPO11 / RFU, DFFB / Fold change vs veh, DFFB / RFU, FOXP1 / Fold change vs veh, FOXP1 / RFU, CARD8 / Fold change vs veh, CARD8 / RFU, STRN3 / Fold change vs veh, STRN3 / RFU, ADK / Fold change vs veh, ADK / RFU, RASSF2 / Fold change vs veh, RASSF2 / RFU, WIPF1 / Fold change vs veh, WIPF1 / RFU, LARP1B / Fold change vs veh, LARP1B / RFU, RASA1 / Fold change vs veh, RASA1 / RFU, RB1 / Fold change vs veh, RB1 / RFU, PPFIA1 / Fold change vs veh, PPFIA1 / RFU, MAT2A / Fold change vs veh, MAT2A / RFU, CCT5 / Fold change vs veh, CCT5 / RFU, WDR92 / Fold change vs veh, WDR92 / RFU, CUX1 / Fold change vs veh, CUX1 / RFU, TTC7A / Fold change vs veh, TTC7A / RFU, TMEM135 / Fold change vs veh, TMEM135 / RFU, DEPTOR / Fold change vs veh, DEPTOR / RFU, CPM / Fold change vs veh, CPM / RFU, DNAJB6 / Fold change vs veh, DNAJB6 / RFU, CACNA2D3 / Fold change vs veh, CACNA2D3 / RFU, DTX4 / Fold change vs veh, DTX4 / RFU, TFCP2 / Fold change vs veh, TFCP2 / RFU, GMCL1 /// GMCL1P1 / Fold change vs veh, GMCL1 /// GMCL1P1 / RFU, AEBP2 / Fold change vs veh, AEBP2 / RFU, SNHG1 /// SNORD22 /// SNORD25 /// SNORD26 /// SNORD27 /// SNORD28 /// SNORD29 /// SNORD31 / Fold change vs veh, SNHG1 /// SNORD22 /// SNORD25 /// SNORD26 /// SNORD27 /// SNORD28 /// SNORD29 /// SNORD31 / Fold change (Aza/veh), C12orf56 (ProbeSet 11735607_a_at) / Fold change (ACY-1035/veh), C12orf56 (ProbeSet 11735607_a_at) / Fold change (Aza/veh), FGFR1OP (ProbeSet 11751329_s_at) / Fold change (ACY-1035/veh), FGFR1OP (ProbeSet 11751329_s_at) / Fold change (Aza/veh), VPS36 (ProbeSet 11739960_a_at) / Fold change (ACY-1035/veh), VPS36 (ProbeSet 11739960_a_at) / RFU SYPL1 (11715823_x_at) / Fold change /veh SYPL1 (11715823_x_at) / RFU IGFBP7 (11715501_s_at) / Fold change /veh IGFBP7 (11715501_s_at) / RFU REEP3 (11722064_at) / Fold change /veh REEP3 (11722064_at) / RFU IGLL1 (11728026_x_at) / Fold change /veh IGLL1 (11728026_x_at): dose or concentration left out as unconfirmed
Conditions: ProbeSet 11732281_s_at; LIST D

## Nc1ccc(-c2cccs2)cc1NC(=O)c1ccc2c(c1)cc(C1CC1)n2CCN1CCOCC1 [ACY-1035]
  RFU, FOXP1: 243.86 RFU
